A short description of data set [1]: Photographic gamma (slope of status M green density vs. exposure), C-41 process. The procedure: (§1) Dispersions of the comparative couplers B1-B3 and B8 and of the couplers of this invention M1-M3 were prepared by dissolving the coupler in the coupler solvent S1 plus the auxiliary solvent 2-(2-butoxyethoxy)ethyl acetate and then dispersing this oil phase in an aqueous solution of gelatin and surfactant using an ultrasonic probe. The dispersions were chilled and washed for 6 hr at 4° C. to remove the auxiliary solvent. The dispersions contained approximately 8.8% coupler, 4.4% S1 and 6% gelatin by weight.
(§2) The dispersions were coated at 1.04 mmole/sq m together with a silver bromoiodide emulsion on a transparent acetate support in the format shown below. Hardened film strips were exposed through a 0-4 neutral density stepwedge and daylight V and WRATTEN 9 filters and subjected to a standard C-41 process at 37.8° C. The process consists of 2.5 min in color developer, 4 min in a ferric EDTA/PDTA bleach solution, 2 min wash, 4 min fix and 2 min final wash. Photographic gamma values were obtained from the slopes of plots of status M green density vs. exposure for processed samples. Absorption spectra of the dye-containing processed films were measured at a density near 1.0 on a spectrophotometer and the wavelengths of maximum absorption (λ max values) were recorded.
(§3) BVSM* Hardener 0.06 g/sq m
(§4) Coupler Solvent S1 1/2 coupler laydown
(§5) Dispersions of couplers B3, M1 and M5 with S1 (1:0.5) were prepared and coated as in Example 2. Film strips of these coatings were exposed, processed and analyzed as in Example 2. λmax values and gamma values associated with these film compositions are listed in Table III. This series further illustrates the use of electron-withdrawing substituents to obtain magenta dyes of the proper hue.
(§6) Dispersions of the comparative couplers B4, B5 and B8 and the couplers of this invention M6-M11 were prepared and coated as in Example 2. The coupler solvent S1 was again used at a 1:0.5 coupler:S1 weight ratio. Film strips of the hardened coatings were exposed, processed and analyzed as in Example 2. Couplers B4 and M6-M8 have a strongly electron-withdrawing alkoxycarbonyl substituent in the R2 position and couplers B5 and M9-M11 have a strongly electron-withdrawing alkylsulfonyl group at R2. […] The couplers of this invention, M6-M11, which have strong electron-withdrawing groups in each ring, yield dyes having the desired bathochromic hues, as shown by the λmax values. The gamma values obtained with the couplers of this invention are suitably high to be useful in photographic materials, as indicated by comparison to the gamma obtained from the commercial coupler B8.
(§7) Dispersions of the comparison couplers B6 and B7, and of the couplers of this invention M12-M17, were prepared using the coupler solvent Sl as in Example 2. These were coated as in Example 2, and hardened film strips were exposed, processed and analyzed as in Example 2. The results obtained are summarized in Table V. In this example all of the couplers have sulfamoyl or alkylsulfonyl substituents in the R1 position and the R2 substituent on the 3-anilino ring is varied. Comparative couplers B6 and B7 have chloro substituents at R2, whereas M12-M17 of this invention have strong electron withdrawing R2 groups. […] The gamma values of the couplers of this invention are similar to those of the comparative couplers.

The nature of data set [2]: Absorption spectra of dye-containing processed films (λmax), C-41 process. The class given is physicochemical. On the procedure: as §1, §2, §3, §4, §5, §6, §7
[3] abbreviates: Table I, Example 2, coupler:S1 1:0.5.
The mark [4] stands for this setting: Table IV, Example 5, coupler:S1 1:0.5.
Setting [5] is: Table V, Example 6, coupler solvent S1.

In data set [1] (setting [3]), `CCCCCCCCCCCCNS(=O)(=O)c1ccc(NC2=NN(c3c(Cl)cc(OC)cc3Cl)C(=O)C2Sc2cc(C(C)(C)CC(C)(C)C)ccc2OCCCC)c(Cl)c1` (stereo not drawn) [Coupler B1, reference compound] showed a Gamma of 4.8. For the same molecule, the “λmax(nm) (+-0.5)” value in data set [2] (setting [3]) is 539.5 nm.

On to `CCCCCCCCCCCCNS(=O)(=O)c1ccc(NC2=NN(c3c(Cl)cccc3Cl)C(=O)C2Sc2cc(C(C)(C)CC(C)(C)C)ccc2OCCCC)c(Cl)c1` (stereo not drawn) [Coupler B2, reference compound], for which the Gamma in data set [1] (setting [3]) amounted to 5.3. Moreover, in data set [2] (setting [3]), the “λmax(nm) (+-0.5)” value came to 542.0 nm.

As to `CCCCCCCCCCCCOC(=O)c1ccc(NC2=NN(c3c(Cl)cc(Cl)cc3Cl)C(=O)C2Sc2cc(C(C)(C)CC(C)(C)C)ccc2OCCCC)c(Cl)c1` (stereo not drawn) [Coupler B4, reference compound], the Gamma in data set [1] (setting [4]) worked out at 4.1. The molecule `CCCCCCCCCCCCS(=O)(=O)c1ccc(NC2=NN(c3c(Cl)cc(Cl)cc3Cl)C(=O)C2Sc2cc(C(C)(C)CC(C)(C)C)ccc2OCCCC)c(Cl)c1` (stereo not drawn) [Coupler B5, reference compound] returned a Gamma in data set [1] (setting [4]) of 4.2. In turn, `CCCCCCCCCCCCNS(=O)(=O)c1cc(Cl)c(N2N=C(Nc3ccc(Cl)cc3Cl)C(Sc3cc(C(C)(C)CC(C)(C)C)ccc3OCCCC)C2=O)c(Cl)c1` (stereo not drawn) [Coupler B6, reference compound] gave a Gamma in data set [1] (setting [5]) of 3.4.

On to `CCCCCCCCCCCCS(=O)(=O)c1cc(Cl)c(N2N=C(Nc3ccc(Cl)cc3Cl)C(Sc3cc(C(C)(C)CC(C)(C)C)ccc3OCCCC)C2=O)c(Cl)c1` (stereo not drawn) [Coupler B7, reference compound], for which the Gamma in data set [1] (setting [5]) was found to be 3.3. In the case of `CCC(C)(C)c1ccc(OCC(=O)Nc2cccc(C(=O)NC3=NN(c4c(Cl)cc(Cl)cc4Cl)C(=O)C3)c2)c(C(C)(C)CC)c1` [Coupler B8, reference compound], the Gamma in data set [1] (setting [3]) amounted to 2.3; in data set [1] (setting [4]), 2.0. Besides, the “λmax(nm) (+-0.5)” value in data set [2] (setting [3]) came out at 555.0 nm; in data set [2] (setting [4]) it was 553.0 nm. In data set [1] (setting [3]), `CCCCCCCCCCCCNS(=O)(=O)c1ccc(NC2=NN(c3c(Cl)cc(S(=O)(=O)N4CCOCC4)cc3Cl)C(=O)C2Sc2ccccc2N(C)C(=O)CCCCCCCCCCC)c(Cl)c1` (stereo not drawn) [Coupler M2] had a Gamma of 3.9. For the same molecule, the “λmax(nm) (+-0.5)” value in data set [2] (setting [3]) came out at 551.5 nm. In the same order, the values of `CCCCCCCCCCCCNS(=O)(=O)c1ccc(NC2=NN(c3c(Cl)cc(S(=O)(=O)N4CCOCC4)cc3Cl)C(=O)C2Sc2ccccc2N(CCCCCCCCCCCC)C(=O)C(C)(C)C)c(Cl)c1` (stereo not drawn) [Coupler M3] are 4.4 and 551.0 nm. Molecule `CCCCCCCCCCCCNS(=O)(=O)c1ccc(NC2=NN(c3c(Cl)cc(C#N)cc3Cl)C(=O)C2Sc2cc(C(C)(C)CC(C)(C)C)ccc2OCCCC)c(Cl)c1` (stereo not drawn) [Coupler M5] yielded a Gamma in data set [1] (Table III, Example 4, coupler:S1 1:0.5) of 3.8. Regarding `CCCCCCCCCCCCOC(=O)c1ccc(NC2=NN(c3c(Cl)cc(S(=O)(=O)N4CCOCC4)cc3Cl)C(=O)C2Sc2cc(C(C)(C)CC(C)(C)C)ccc2OCCCC)c(Cl)c1` (stereo not drawn) [Coupler M6], in data set [1] (setting [4]), the Gamma came out at 3.7. In addition, the “λmax(nm) (+-0.5)” value in data set [2] (setting [4]) is 548.5 nm. In the same order, the values of `CCCCCCCCCCCCOC(=O)c1ccc(NC2=NN(c3c(Cl)cc(S(C)(=O)=O)cc3Cl)C(=O)C2Sc2cc(C(C)(C)CC(C)(C)C)ccc2OCCCC)c(Cl)c1` (stereo not drawn) [Coupler M7] are 3.1 and 548.5 nm.

In turn, `CCCCCCCCCCCCOC(=O)c1ccc(NC2=NN(c3c(Cl)cc(C#N)cc3Cl)C(=O)C2Sc2cc(C(C)(C)CC(C)(C)C)ccc2OCCCC)c(Cl)c1` (stereo not drawn) [Coupler M8] gave a Gamma in data set [1] (setting [4]) of 4.1. In addition, the “λmax(nm) (+-0.5)” value in data set [2] (setting [4]) was found to be 548.5 nm. Taken in the same sequence, the figures for `CCCCCCCCCCCCS(=O)(=O)c1ccc(NC2=NN(c3c(Cl)cc(S(=O)(=O)N4CCOCC4)cc3Cl)C(=O)C2Sc2cc(C(C)(C)CC(C)(C)C)ccc2OCCCC)c(Cl)c1` (stereo not drawn) [Coupler M9] were 3.2 and 551.0 nm. As to `CCCCCCCCCCCCS(=O)(=O)c1ccc(NC2=NN(c3c(Cl)cc(S(C)(=O)=O)cc3Cl)C(=O)C2Sc2cc(C(C)(C)CC(C)(C)C)ccc2OCCCC)c(Cl)c1` (stereo not drawn) [Coupler M10], in data set [1] (setting [4]), the Gamma came to 3.2. For the same molecule, in data set [2] (setting [4]), the “λmax(nm) (+-0.5)” value worked out at 551.0 nm. In data set [1] (setting [5]), `CCCCCCCCCCCCNS(=O)(=O)c1cc(Cl)c(N2N=C(Nc3ccc(S(=O)(=O)N4CCOCC4)cc3Cl)C(Sc3cc(C(C)(C)CC(C)(C)C)ccc3OCCCC)C2=O)c(Cl)c1` (stereo not drawn) [Coupler M12] yielded a Gamma of 3.1. In addition, the “λmax(nm) (+-0.5)” value in data set [2] (setting [5]) was 549.5 nm.

`CCCCCCCCCCCCNS(=O)(=O)c1cc(Cl)c(N2N=C(Nc3ccc(S(C)(=O)=O)cc3Cl)C(Sc3cc(C(C)(C)CC(C)(C)C)ccc3OCCCC)C2=O)c(Cl)c1` (stereo not drawn) [Coupler M13] came in with a Gamma in data set [1] (setting [5]) of 3.9. In data set [2] (setting [5]), the “λmax(nm) (+-0.5)” value is recorded as 549.5 nm. Molecule `CCCCCCCCCCCCNS(=O)(=O)c1cc(Cl)c(N2N=C(Nc3ccc(C#N)cc3Cl)C(Sc3cc(C(C)(C)CC(C)(C)C)ccc3OCCCC)C2=O)c(Cl)c1` (stereo not drawn) [Coupler M14] registered a Gamma in data set [1] (setting [5]) of 3.1. The “λmax(nm) (+-0.5)” value in data set [2] (setting [5]) turned out to be 550.5 nm. In data set [1] (setting [5]), `CCCCCCCCCCCCS(=O)(=O)c1cc(Cl)c(N2N=C(Nc3ccc(S(=O)(=O)N4CCOCC4)cc3Cl)C(Sc3cc(C(C)(C)CC(C)(C)C)ccc3OCCCC)C2=O)c(Cl)c1` (stereo not drawn) [Coupler M15] yielded a Gamma of 3.4. Also, in data set [2] (setting [5]), the “λmax(nm) (+-0.5)” value is listed as 551.0 nm. Taken in the same sequence, the figures for `CCCCCCCCCCCCS(=O)(=O)c1cc(Cl)c(N2N=C(Nc3ccc(S(C)(=O)=O)cc3Cl)C(Sc3cc(C(C)(C)CC(C)(C)C)ccc3OCCCC)C2=O)c(Cl)c1` (stereo not drawn) [Coupler M16] were 3.2 and 550.5 nm.

In data set [1] (setting [5]), `CCCCCCCCCCCCS(=O)(=O)c1cc(Cl)c(N2N=C(Nc3ccc(C#N)cc3Cl)C(Sc3cc(C(C)(C)CC(C)(C)C)ccc3OCCCC)C2=O)c(Cl)c1` (stereo not drawn) [Coupler M17] gave a Gamma of 3.5. The “λmax(nm) (+-0.5)” value in data set [2] (setting [5]) turned out to be 550.5 nm.

These data come from US5256528A, “Magenta image-dye couplers of improved hue” (Eastman Kodak Company, priority 1992, dated 1993).
